Type in all cases: functional
Common to all, as to settings: read-out: ED50 (the source's name)

One assay deals with HT-29. Nature of the assay: Cytotoxicity against human HT-29 cells.
In the next assay the test system is Malme-3M. Nature of the assay: Cytotoxicity against human MALME-3M cells.
In a further assay the test system is SK-MEL-5. Nature of the assay: Cytotoxicity against human SK-MEL-5 cells.
A further assay has as its system A549. Nature of the assay: Cytotoxicity against human A549 cells.
For another assay, the system named is MCF7. The assay is described as follows: Cytotoxicity against human MCF7 cells.

The structures appear in SMILES notation. ≈ marks a conversion by molar mass, not a printed value.

Consider `COC(=O)/C=C/C(=O)CC(O)COC(=O)c1ccccc1` (stereo unspecified), for which the EC50 amounted to 0.253 µg/mL (≈ 0.866 µM) in the assay on HT-29; 1.1 µg/mL (≈ 3.76 µM) in the assay on Malme-3M; 1.04 µg/mL (≈ 3.56 µM) in the assay on SK-MEL-5; 3.28 µg/mL (≈ 11.2 µM) in the assay with A549; 1.92 µg/mL (≈ 6.57 µM) in the assay with MCF7.

For the compound `CC(=O)OC(/C=C1/C=CC(=O)O1)COC(=O)c1ccccc1` (stereo unspecified) [ACETYLMELODORINOL], the EC50 amounted to 2.38 µg/mL (≈ 7.87 µM) in the assay on HT-29; 2.74 µg/mL (≈ 9.06 µM) in the assay with Malme-3M; 4.21 µg/mL (≈ 13.9 µM) in the assay on SK-MEL-5; 2.89 µg/mL (≈ 9.56 µM) in the assay on A549; 1.96 µg/mL (≈ 6.48 µM) with MCF7.

On to `CCOC(=O)/C=C\C(=O)/C=C/COC(=O)c1ccccc1` [HOMOISOMELODIENONE], for which the EC50 was 36.3 µg/mL (≈ 126 µM) in the assay with HT-29, 6.7 µg/mL (≈ 23.2 µM) with A549 and 4.26 µg/mL (≈ 14.8 µM) in the assay with MCF7.

For `CCOC(=O)/C=C/C(=O)/C=C/COC(=O)c1ccccc1` [HOMOMELODIENONE], the values for the EC50 in the assay on HT-29, in the assay with A549 and with MCF7 were 37.9 µg/mL (≈ 131 µM), 36.9 µg/mL (≈ 128 µM) and 25.6 µg/mL (≈ 88.8 µM), respectively.

As for `O=C1C=C/C(=C/C(O)COC(=O)c2ccccc2)O1` (stereo unspecified) [MELODORINOL], the EC50 in the assay on HT-29 worked out at 2.87 µg/mL (≈ 11 µM); with Malme-3M it was 3.32 µg/mL (≈ 12.8 µM); in the assay with SK-MEL-5, 3.75 µg/mL (≈ 14.4 µM); in the assay with A549 it was 5.89 µg/mL (≈ 22.6 µM); in the assay on MCF7, 1.99 µg/mL (≈ 7.65 µM).

The values are drawn from ChEMBL document CHEMBL1158951, “Additional bioactive heptenes from Melodorum fruticosum” (1991).
